Source: patent US11666597B2, “Water-activated mucoadhesive compositions to reduce intestinal absorption of nutrients” (The Brigham and Women's Hospital, Inc., priority 2015, dated 2023)

Key:
[1] = Degree of polymerization of PAC by titration; assay type: physicochemical; details: native sucralfate
Method: Experiments were performed to determine the degree of polymerization in AF-LuCI by using the titration-based methods as described in Nail, S. L., White, J. L. & Hem, S. L. Structure of Aluminum Hydroxide Gel I: Initial Precipitate. Journal of Pharmaceutical Sciences 65, 1188-1191 (1976); and Hem, J. D. & Roberson, C. E. Form and stability of aluminum hydroxide complexes in dilute solution. Geol Surv Water-Supply Pap(US)(United States) (1967). The degree of polymerization of PACs in AF-LuCI and sucralfate molecule was determined using titration method based on the reversible protonation of hydroxo linkages in the PAC backbone. Approximately 10 mg of AF-LuCI were treated with 0.1N, 0.2N, 0.3N, 0.4N and 0.5N HCl solutions in different tubes. The samples were vortexed for 5 seconds followed by 1-hour incubation. The supernatant of each sample was then collected and the pH was measured using a pH meter. The same procedures were performed with sucralfate. The pH of the HCl solutions was measured as the control group and the difference between the control and the treated groups was calculated. The difference in pH corresponds to the proton consumption and the amount of hydroxo linkages that were then used to calculate the number of aluminum per molecule.

[2] = Glucose barrier test on mucin-coated membrane in Franz cell; design: species or system porcine
Method: To examine the barrier properties of pastes formed from the new hydratable compositions in vitro, a mucin-coated membrane was prepared to mimic the mucus surface of the intestine. Specifically, a cellulose nitrate membrane (pore size: 0.2 μm, Whatman, Germany) was incubated in a 3% w/v porcine stomach mucin (SigmaAldrich, USA) solution in PBS (pH 7.4) and gently shaken for 2 hours at room temperature. The membrane was washed with distilled deionized water (DDW, pH 5.5) to remove the excess mucin solution. The mucin-coated membranes were used within 1 hour following preparation.
To measure the thickness of the mucin layer, the mucin-coated membrane was lyophilized and imaged using scanning electron microscope (SEM) and the thickness of randomly selected positions was examined (average mucin layer thickness: ˜100 μm). To test the nutrient barrier properties, 10 mg of sucralfate or AF-LuCI was added evenly to a mucin-coated membrane and vertically tilted for 1 minute. […]
The permeation tests were performed in triplicate for each material. The glucose concentration was measured using high performance liquid chromatography (HPLC, Agilent, USA) with an analytical C18 column (Zorbax Eclipse XDB-C18, Agilent). […]

[3] = Thickness of paste layer on mucus-coated cellulose nitrate membrane
Method: Five hundred milligrams of AF-LuCI (excess) was added onto mucus-coated cellulose nitrate membrane (disk shape with 2 cm diameter) and DDW (pH 5.5), SGF (pH 1.0), or SIF (pH 6.5) was added immediately. After AF-LuCI becomes a paste and flow to form a layer (3-5 minutes), supernatant was removed and the paste-coated membrane was quickly frozen in −80° C. freezer to measure the thickness. The thickness of the mucus-coated cellulose nitrate membrane without AF-LuCI was separately measured as a baseline.

[4] = Aluminum release in simulated gastrointestinal fluids; assay type: physicochemical
[5] = Dissolution in NaCl solutions; assay type: physicochemical; details: saturated NaCl solutions (~0.35 g/ml in water)
From the text: […] This is a characteristic behavior of liquid complex coacervate system (See Wang, Q. & Schlenoff, J. B. The Polyelectrolyte Complex/Coacervate Continuum. Macromolecules 47, 3108-3116 (2014); de Kruif, C. G., Weinbreck, F. & de Vries, R. Complex coacervation of proteins and anionic polysaccharides. Current Opinion in Colloid & Interface Science 9, 340-349 (2004); Veis, A. & Aranyi, C. PHASE SEPARATION IN POLYELECTROLYTE SYSTEMS. I. COMPLEX COACERVATES OF GELATIN. J. Phys. Chem. 64, 1203-1210 (1960)).

[6] = tested on: Sprague-Dawley (SD) rats; experiment: microCT imaging of coating in the GI tract after gavage; assay type: in vivo; details: gavage into the stomach, AF-LuCI 450 mg/kg rat, imaged after 1 hr
Method: Sprague-Dawley (SD) rats were gavaged into the stomach with hydrated AF-LuCI pastes and imaged using micro-computed tomography (microCT). AF-LuCI pastes could be visualized on gastro-intestinal tissues without additional contrast agents owing to the presence of aluminum. For these experiments, rats were fasted overnight and gavaged directly into the stomach with 450 mg/kg rat of AF-LuCI paste hydrated in 0.9 w/v % normal saline solution. After 1 hr and 5 hr, the rats were anesthetized using isoflurane and imaged using microCT. […] FIG. 18A is a coronal plane view of SD rats gavaged with AF-LuCI 1 hr before the imaging. AF-LuCI formed a layer in stomach, duodenum and proximal intestine. FIGS. 18B and 18C are 3-dimensional views of SD rats gavaged with AF-LuCI (FIG. 18B) 1 hr and (FIG. 18C) 5 hr before the microCT imaging. AF-LuCI is attached on stomach, duodenum and proximal intestine at least for 5 hrs after gavage while sucralfate only formed sparsely scattered aggregates on the healthy mucosa

[7] = tested on: normal Sprague-Dawley (SD) rats; experiment: OGTT with sucralfate; assay type: in vivo, rat
From the text: In contrast, sucralfate selectively binds to ulcerated mucosa where the bicarbonate secretion is malfunctioned (i.e. acidic), while on bicarbonate-neutralized healthy mucosa sucralfate forms loosely bound discrete solid aggregates attached on the surface rather than forming a continuous layer. […] The neutralized pH on mucus surfaces also compromised the barrier function of sucralfate due to the change of rheological properties.

[8] = native sucralfate, USP specification; cited from earlier work

For sucralfate, the “number of aluminum ions per molecule (degree of polymerization of PAC)” value [1] was 56.1±3.0 aluminum per molecule, the glucose penetration blocked ([2]; SGF, 10 mg on membrane, 120 g/L glucose, 5 minutes) was ~60% and the glucose blocked ([2]; applied on mucus-coated membrane in pH 1.0, then solution of pH 4.0 added) was 16.5%. The thickness of layer ([3]; SGF (pH 1.0)) was ~250 μm, the layer formation ([3]; distilled water or SIF) was “did not form any layer” and the “release of original aluminum content” value ([4]; exposed to an acidic fluid, e.g. gastric fluid, for AF-LuCI relative to the aluminum content of commercial sucralfate) was “about 15.0 w/w %”. For the same substance, the release of aluminum ([4]; simulated gastric fluid (SGF, pH 1.0)) was 15 w/w % of total aluminum content, the fraction dissolved [5] was “Less than 5 w/w %” and the “layer formation in the GI tract (microCT)” value [6] was “did not form a layer”. For the same substance, the “area under curve (AUC) in OGTT versus saline treated group” value [7] was “no significant difference” and the “USP regulation on the aluminum content” value [8] was 15.5-18.5 w/w % of the total weight.
